Test results as given in US8163768B2, “1,4-dihydropyridine-fused heterocycles, process for preparing the same, use and compositions containing them” (Aventis Pharma S.A.., priority 2005, dated 2012).
Counter-ions that a name gives are not always drawn.

Assays:
[1] = biological target: T1, Aurora2 (Aurora-A) (Homo sapiens, UniProt O14965); test: Aurora 2 (Aurora A) kinase radioactivity scintillation assay using nickel chelate Flash plates; format: biochemical; conditions: 10 nM Aurora-A, 500 nM NuMA substrate, 1 μM ATP with [33P] ATP, 10 mM MgCl2, 30 minutes, 37° C.
T1 construct: Aurora-A: the full length recombinant protein including an N-terminal poly-histidine tail has been expressed in E. coli; poly-histidine (N); made in house; host or cells: E. coli
T1 sequence (O14965 1-403): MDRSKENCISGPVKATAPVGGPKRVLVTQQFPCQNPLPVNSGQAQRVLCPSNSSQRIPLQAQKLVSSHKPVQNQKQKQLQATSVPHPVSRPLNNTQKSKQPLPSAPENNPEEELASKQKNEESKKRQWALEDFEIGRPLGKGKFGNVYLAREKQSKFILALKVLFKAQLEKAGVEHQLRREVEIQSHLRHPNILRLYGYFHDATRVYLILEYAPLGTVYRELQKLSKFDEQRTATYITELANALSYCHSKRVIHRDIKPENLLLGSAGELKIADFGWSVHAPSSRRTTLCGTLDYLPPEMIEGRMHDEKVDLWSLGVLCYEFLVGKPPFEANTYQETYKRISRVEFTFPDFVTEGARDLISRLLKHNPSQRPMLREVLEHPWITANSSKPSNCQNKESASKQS
How it was run: (§1)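 10 nM Aurora-B or Aurora-A with 500 nM NuMA-His substrate, 1 μM ATP plus [³³P]ATP, in 50 mM NaCl, 1 mM DTT and 5 mM (B) or 10 mM (A) MgCl2, 30 min at 37° C on nickel-chelate plates. Incorporated ³³P counted after washing, background-subtracted; IC50 fitted from % inhibition versus concentration.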

[2] = biological target: T2, Aurora1 (Aurora-B) (Homo sapiens, UniProt Q96GD4); test: Aurora 1 (Aurora B) kinase radioactivity scintillation assay using nickel chelate Flash plates; format: biochemical; conditions: 10 nM Aurora-B (co expressed with C3 fragment of INCEP), 500 nM NuMA substrate, 1 μM ATP with [33P] ATP, 5 mM MgCl2, 30 minutes, 37° C.
T2 construct: Aurora-B: the full length protein (His tagged in N-terminal) has been co expressed in SF9 cells; poly-histidine (N); made in house; host or cells: SF9 cells
T2 sequence (Q96GD4 whole entry, species assumed, the tested form may be a part): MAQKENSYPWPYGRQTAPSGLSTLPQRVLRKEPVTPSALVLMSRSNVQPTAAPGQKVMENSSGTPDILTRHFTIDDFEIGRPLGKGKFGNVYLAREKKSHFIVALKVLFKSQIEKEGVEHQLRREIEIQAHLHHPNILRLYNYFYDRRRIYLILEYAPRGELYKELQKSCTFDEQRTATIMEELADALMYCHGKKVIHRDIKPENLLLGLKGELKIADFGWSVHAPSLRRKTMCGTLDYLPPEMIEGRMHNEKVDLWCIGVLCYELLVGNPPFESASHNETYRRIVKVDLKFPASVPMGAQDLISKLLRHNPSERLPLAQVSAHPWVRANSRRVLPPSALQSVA
T2 sequence (Q9NQS7 821-918 partner limits assumed, species assumed): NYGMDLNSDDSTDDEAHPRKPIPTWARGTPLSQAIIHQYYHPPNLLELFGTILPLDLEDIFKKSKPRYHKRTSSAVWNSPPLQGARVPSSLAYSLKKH
How it was run: as §1

melting point | IC50 [1] | IC50 [2] | Compound
190 to 202 °C | – | 12 nM | CCOC(=O)c1[nH]cc2c1NC1=C(C(=O)CCC1)C2c1ccc(Sc2nc3cccnc3[nH]2)o1 (stereo not drawn) [Example 112, 9-[5-(3H-Imidazo[4,5-b]pyridin-2-ylsulfanyl)-furan-2-yl]-8-oxo-4,5,6,7,8,9-hexahydro-2H-pyrrolo[3,4-b]quinoline-3-carboxylic acid ethyl ester]
– | 302 nM | 521 nM | O=C1CNCC2=C1C(c1ccc(Sc3nc4cc(Cl)ccc4s3)o1)c1c[nH]nc1N2 (stereo not drawn) [Example 74, 4-[5-(5-Chloro-benzothiazol-2-ylsulfanyl)-furan-2-yl]-2,4,6,7,8,9-hexahydro-pyrazolo[3,4-b]-1,7-naphthyridin-5-one; compound with trifluoro-acetic acid]
– | 1340 nM | 150 nM | Cn1c(Sc2ccc(C3C4=C(CCCC4=O)Nc4n[nH]cc43)o2)nc2ccccc21 (stereo not drawn) [Example 82, 4-[5-(1-Methyl-1H-benzimidazol-2-ylsulfanyl)-furan-2-yl]-2,4,6,7,8,9-hexahydro-pyrazolo[3,4-b]quinolin-5-one; compound with trifluoro-acetic acid]
– | 22 nM | 9 nM | O=C1CCCC2=C1C(c1ccc(Sc3nc4cc(Cl)c(Cl)cc4[nH]3)o1)c1c[nH]nc1N2 (stereo not drawn) [Example 85, 4-[5-(5,6-Dichloro-1H-benzimidazol-2-ylsulfanyl)-furan-2-yl]-2,4,6,7,8,9-hexahydro-pyrazolo[3,4-b]quinolin-5-one; compound with trifluoro-acetic acid]
– | 31 nM | 8 nM | Cc1ccc2[nH]c(Sc3ccc(C4C5=C(CCCC5=O)Nc5n[nH]cc54)o3)nc2c1 (stereo not drawn) [Example 70, 4-[5-(5-Methyl-1H-benzimidazol-2-ylsulfanyl)-furan-2-yl]-2,4,6,7,8,9-hexahydro-pyrazolo[3,4-b]quinolin-5-one; compound with trifluoro-acetic acid compound with trifluoro-acetic acid]
– | 134 nM | 38 nM | COc1ccccc1C1CC(=O)C2=C(C1)Nc1n[nH]cc1C2c1ccc(Sc2nc3ccccc3[nH]2)o1 (stereo not drawn) [Example 39, 4-[5-(1H-Benzimidazol-2-ylsulfanyl)-furan-2-yl]-7-(2-methoxy-phenyl)-2,4,6,7,8,9-hexahydro-pyrazolo[3,4-b]quinolin-5-one; compound with trifluoro-acetic acid]

Continued, compound first:

Compound | melting point | IC50 [1] | IC50 [2]
CCOC(=O)c1[nH]cc2c1NC1=C(C(=O)CCC1)C2c1cnc(Sc2nc3ccccc3[nH]2)s1 (stereo not drawn) [Example 118, 9-[2-(1H-Benzimidazol-2-ylsulfanyl)-thiazol-5-yl]-8-oxo-4,5,6,7,8,9-hexahydro-2H-pyrrolo[3,4-b]quinoline-3-carboxylic acid ethyl ester] | 194 °C | – | –
CCOC(=O)c1[nH]cc2c1NC1=C(C(=O)CNC1)C2c1ccc(Sc2nc3cc(OC)ccc3[nH]2)o1 (stereo not drawn) [Example 111, 9-[5-(6-Methoxy-1H-benzimidazol-2-ylsulfanyl)-furan-2-yl]-8-oxo-4,5,6,7,8,9-hexahydro-2H-pyrrolo[3,4-b][1,7]naphthyridine-3-carboxylic acid ethyl ester] | 248 °C | 1250 nM | 501 nM
CCOC(=O)c1[nH]cc2c1NC1=C(C(=O)CNC1)C2c1ccc(Sc2nc3cc(F)c(F)cc3[nH]2)o1 (stereo not drawn) [Example 115, 9-[5-(5,6-Difluoro-1H-benzimidazol-2-ylsulfanyl)-furan-2-yl]-8-oxo-4,5,6,7,8,9-hexahydro-2H-pyrrolo[3,4-b][1,7]naphthyridine-3-carboxylic acid ethyl ester] | 190 to 196 °C | 48 nM | 8 nM
CCOC(=O)c1[nH]cc2c1NC1=C(C(=O)CCC1)C2c1ccc(Sc2nc3cc(Cl)c(Cl)cc3[nH]2)o1 (stereo not drawn) [Example 116, 9-[5-(5,6-Dichloro-1H-benzimidazol-2-ylsulfanyl)-furan-2-yl]-8-oxo-4,5,6,7,8,9-hexahydro-2H-pyrrolo[3,4-b]quinoline-3-carboxylic acid ethyl ester] | 180 °C | 54 nM | 6 nM
CCOC(=O)c1[nH]cc2c1NC1=C(C(=O)CCC1)C2c1ccc(Sc2nc3cc(OC)ccc3[nH]2)o1 (stereo not drawn) [Example 110, 9-[5-(5-Methoxy-1H-benzimidazol-2-ylsulfanyl)-furan-2-yl]-8-oxo-4,5,6,7,8,9-hexahydro-2H-pyrrolo[3,4-b]quinoline-3-carboxylic acid ethyl ester] | 140 °C | 21 nM | 8 nM
CCOC(=O)c1[nH]cc2c1NC1=C(C(=O)CNC1)C2c1ccc(Sc2nc3cc4c(cc3[nH]2)OC(F)(F)O4)o1 (stereo not drawn) [Example 141, 9-[5-(2,2-Difluoro-5H-[1,3]dioxolo[4′,5′:4,5]benzo[1,2-d]imidazol-6-ylsulfanyl)-furan-2-yl]-8-oxo-4,5,6,7,8,9-hexahydro-2H-pyrrolo[3,4-b]-1,7-naphthyridine-3-carboxylic acid ethyl ester hydrochloride] | – | 87 nM | 20 nM
CCOC(=O)c1[nH]cc2c1NC1=C(C(=O)CCC1)C2c1ccc(Sc2nc3cc4c(cc3[nH]2)OC(F)(F)O4)o1 (stereo not drawn) [Example 139, 9-[5-(2,2-Difluoro-5H-[1,3]dioxolo[4′,5′:4,5]benzo[1,2-d]imidazol-6-ylsulfanyl)-furan-2-yl]-8-oxo-4,5,6,7,8,9-hexahydro-2H-pyrrolo[3,4-b]quinoline-3-carboxylic acid ethyl ester] | – | 124 nM | 19 nM
CCOC(=O)c1[nH]cc2c1NC1=C(C(=O)CN(C(=O)OC(C)(C)C)C1)C2c1ccc(Sc2nc3cc4c(cc3[nH]2)OC(F)(F)O4)o1 (stereo not drawn) [Example 140] | – | 3900 nM | 1660 nM
CC1(C)CC(=O)C2=C(C1)Nc1c(c[nH]c1C(=O)O)C2c1ccc(Sc2nc3ccccc3[nH]2)o1 (stereo not drawn) [Example 124, 9-[5-(1H-Benzimidazol-2-ylsulfanyl)-furan-2-yl]-6,6-dimethyl-8-oxo-4,5,6,7,8,9-hexahydro-2H-pyrrolo[3,4-b]quinoline-3-carboxylic acid] | – | 20 nM | 15 nM
CCOC(=O)c1[nH]cc2c1NC1=C(C(=O)CCC1)C2c1ccc(Sc2nc3cc(C)ccc3[nH]2)o1 (stereo not drawn) [Example 108, 9-[5-(5-Methyl-1H-benzimidazol-2-ylsulfanyl)-furan-2-yl]-8-oxo-4,5,6,7,8,9-hexahydro-2H-pyrrolo[3,4-b]quinoline-3-carboxylic acid ethyl ester] | – | 41 nM | 8 nM
Cc1ccc2[nH]c(Sc3ccc(C4C5=C(CNCC5=O)Nc5n[nH]cc54)s3)nc2c1 (stereo not drawn) [Example 103, 4-[5-(5-Methyl-1H-benzoimidazol-2-ylsulfanyl)-thiophen-2-yl]-2,4,6,7,8,9-hexahydro-pyrazolo[3,4-b]-1,7-naphthyridin-5-one; compound with trifluoro-acetic acid] | – | 4720 nM | 299 nM
O=C1CC(c2ccc3c(c2)OCO3)CC2=C1C(c1ccc(Sc3nc4ccccc4[nH]3)o1)c1c[nH]nc1N2 (stereo not drawn) [Example 35, 7-Benzo[1,3]dioxol-5-yl-4-[5-(1H-benzimidazol-2-ylsulfanyl)-furan-2-yl]-2,4,6,7,8,9-hexahydro-pyrazolo[3,4-b]quinolin-5-one; compound with trifluoro-acetic acid] | – | 19 nM | 5 nM
